Active and inactive are the calls of the source. No cut-off for these calls is given here.
Tests used:
[1] = system: 3T3-L1; assay: Upregulation of aP2 gene expression in mouse 3T3L1 cells by RT-PCR analysis; assay type: functional, cell-based
[2] = system: 3T3-L1; assay: Upregulation of GLUT4 protein expression in mouse 3T3L1 cells by Western blot analysis; assay type: functional, cell-based
[3] = system: 3T3-L1; assay: Induction of adipogenesis in mouse 3T3L1 cells assessed as increase in triglyceride content at 15 uM after 8 days by Oil red O staining relative to control; assay type: functional
[4] = system: 3T3-L1; assay: Induction of adipogenesis in mouse 3T3L1 cells assessed as increase in triglyceride content at 7.5 uM after 8 days by Oil red O staining relative to control; assay type: functional
[5] = system: 3T3-L1; assay: Upregulation of GLUT4 gene expression in mouse 3T3L1 cells by RT-PCR analysis; assay type: functional, cell-based
[6] = system: 3T3-L1; assay: Upregulation of aP2 protein expression in mouse 3T3L1 cells by Western blot analysis; assay type: functional, cell-based
[7] = system: 3T3-L1; assay: Induction of adipogenesis in mouse 3T3L1 cells assessed as increase in triglyceride content after 8 days by Oil red O staining relative to control; assay type: functional, cell-based
[8] = system: 3T3-L1; assay: Induction of adipogenesis in mouse 3T3L1 cells assessed as increase in triglyceride content at 10 uM after 8 days by Oil red O staining relative to control; assay type: functional
[9] = system: 3T3-L1; assay: Induction of adipogenesis in mouse 3T3L1 cells assessed as increase in triglyceride content at 5 uM after 8 days by Oil red O staining relative to control; assay type: functional
[10] = system: 3T3-L1; assay: Induction of adipogenesis in mouse 3T3L1 cells assessed as increase in triglyceride content at 1 uM after 8 days by Oil red O staining relative to control; assay type: functional

Q: What does the source list for `CC(C)=CCC/C(C)=C/Cc1c(-c2oc3c(CC=C(C)C)c(O)cc(O)c3c(=O)c2O)ccc(O)c1O` [NOTABILISIN C]?
A: Activity [1]: Active; Activity [2]: Active; Activity [3]: 948.51%; Activity [4]: 312.24%; Activity [5]: Active; Activity [6]: Active

Q: For `CC(C)=CCc1c(O)ccc(C(=O)[C@H]2[C@@H](c3c(O)ccc(C(=O)/C=C/c4ccc(O)cc4O)c3O)C=C(C)C[C@@H]2c2ccc(O)cc2O)c1O`, which Activity [7] is on record?
A: The Activity was “inactive”.

Q: Which results are given for `COc1c(-c2ccc(O)c(O)c2C/C=C(\C)CCC=C(C)C)oc2cc(O)cc(O)c2c1=O` [NOTABILISIN A]?
A: Activity [8]: 513.55%; Activity [1]: Active; Activity [2]: Active; Activity [5]: Active; Activity [6]: Active; Activity [9]: 305.32%

Q: With `CN(CCOc1ccc(CC2SC(=O)NC2=O)cc1)c1ccccn1` (stereo not given) [ROSIGLITAZONE] as the compound, how does the Activity [10] read?
A: The Activity was 984.24%.

Q: Which results are given for `CC(C)=CCc1c(O)ccc(C(=O)[C@H]2[C@@H](c3c(O)cc(-c4cc5ccc(O)cc5o4)cc3O)C=C(C)C[C@@H]2c2ccc(O)cc2O)c1O` [CHALCOMORACIN]?
A: Activity [1]: inactive; Activity [2]: inactive; Activity [3]: 125.36%; Activity [4]: 109.99%; Activity [5]: inactive; Activity [6]: Active

Source: ChEMBL document CHEMBL1806400, “New isoprenylated flavonoids and adipogenesis-promoting constituents from Morus notabilis” (2011)
